In ChEMBL document CHEMBL5465560, “Selectivity Literature for EUbOPEN Chemogenomic Library” (2024):

Key:
[1] = molecular target: T1, Receptor-interacting serine/threonine-protein kinase 1 (Homo sapiens) (UniProt Q13546); experiment: Selectivity interaction (KinomeScan (DiscoverX)) EUB0001049a RIPK1; settings: at 1 µM
T1 sequence (whole entry): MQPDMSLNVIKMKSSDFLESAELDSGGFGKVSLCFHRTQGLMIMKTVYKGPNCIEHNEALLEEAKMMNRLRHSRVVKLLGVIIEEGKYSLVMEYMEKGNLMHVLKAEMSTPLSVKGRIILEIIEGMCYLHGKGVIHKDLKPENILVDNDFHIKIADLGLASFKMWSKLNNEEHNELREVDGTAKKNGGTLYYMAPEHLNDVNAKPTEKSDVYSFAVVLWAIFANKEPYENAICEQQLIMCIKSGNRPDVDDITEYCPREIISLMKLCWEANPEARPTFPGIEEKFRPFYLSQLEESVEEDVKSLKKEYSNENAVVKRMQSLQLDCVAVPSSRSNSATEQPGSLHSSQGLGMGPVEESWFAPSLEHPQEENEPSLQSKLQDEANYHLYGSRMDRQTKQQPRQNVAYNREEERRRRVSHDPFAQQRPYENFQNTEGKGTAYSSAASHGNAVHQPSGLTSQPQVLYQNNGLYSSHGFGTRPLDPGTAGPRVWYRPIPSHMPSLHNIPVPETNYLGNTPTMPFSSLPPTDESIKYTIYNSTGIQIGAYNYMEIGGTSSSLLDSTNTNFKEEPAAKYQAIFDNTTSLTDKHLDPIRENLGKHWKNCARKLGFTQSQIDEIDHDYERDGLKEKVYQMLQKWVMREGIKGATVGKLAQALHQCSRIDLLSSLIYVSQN

[2] = molecular target: T2, Dual specificity mitogen-activated protein kinase kinase 7 (Homo sapiens) (UniProt O14733); experiment: Selectivity interaction (KinomeScan (DiscoverX)) EUB0000229b MAP2K7; settings: at 10 µM
T2 sequence (whole entry): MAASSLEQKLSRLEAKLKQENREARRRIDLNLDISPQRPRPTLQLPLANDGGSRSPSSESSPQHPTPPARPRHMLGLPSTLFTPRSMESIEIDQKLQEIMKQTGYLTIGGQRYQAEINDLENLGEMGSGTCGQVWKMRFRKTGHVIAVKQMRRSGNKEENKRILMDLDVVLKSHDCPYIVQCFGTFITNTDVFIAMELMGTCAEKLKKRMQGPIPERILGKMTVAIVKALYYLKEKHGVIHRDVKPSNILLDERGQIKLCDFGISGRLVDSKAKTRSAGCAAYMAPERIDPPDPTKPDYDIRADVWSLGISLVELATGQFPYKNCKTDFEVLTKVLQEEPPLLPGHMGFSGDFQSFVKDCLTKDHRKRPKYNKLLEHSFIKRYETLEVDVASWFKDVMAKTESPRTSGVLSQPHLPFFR

[3] = molecular target: Cyclin-dependent kinase-like 1 (Homo sapiens) (UniProt Q00532); experiment: Selectivity interaction (KinomeScan (DiscoverX)) EUB0000229b CDKL1; settings: at 10 µM
[4] = molecular target: T3, Mitogen-activated protein kinase kinase kinase 3 (Homo sapiens) (UniProt Q99759); experiment: Selectivity interaction (KinomeScan (DiscoverX)) EUB0000092b MAP3K3; settings: at 10 µM
T3 sequence (whole entry): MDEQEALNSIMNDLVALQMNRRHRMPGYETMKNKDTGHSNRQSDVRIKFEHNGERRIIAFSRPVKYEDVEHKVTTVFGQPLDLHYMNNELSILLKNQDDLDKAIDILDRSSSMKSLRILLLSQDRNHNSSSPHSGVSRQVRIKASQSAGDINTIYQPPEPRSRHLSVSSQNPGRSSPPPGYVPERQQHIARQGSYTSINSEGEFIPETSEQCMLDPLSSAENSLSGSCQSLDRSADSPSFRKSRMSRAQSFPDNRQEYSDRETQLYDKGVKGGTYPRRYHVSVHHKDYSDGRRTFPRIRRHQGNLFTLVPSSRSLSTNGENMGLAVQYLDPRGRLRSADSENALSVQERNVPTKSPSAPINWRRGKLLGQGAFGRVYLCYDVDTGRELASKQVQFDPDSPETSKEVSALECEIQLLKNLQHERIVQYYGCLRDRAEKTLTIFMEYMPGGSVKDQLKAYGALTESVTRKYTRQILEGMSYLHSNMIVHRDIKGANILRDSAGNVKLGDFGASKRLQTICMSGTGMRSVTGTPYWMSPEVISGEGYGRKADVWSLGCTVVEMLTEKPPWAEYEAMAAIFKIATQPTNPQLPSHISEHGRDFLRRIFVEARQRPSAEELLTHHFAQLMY

[5] = molecular target: T4, Ephrin type-A receptor 3 (Homo sapiens) (UniProt P29320); experiment: Selectivity interaction (Ambit KINOMEscan and KiNATiv profiling in Jurkat cells) EUB0000090b EPHA3; type: cell-based; settings: at 1 µM
T4 sequence (whole entry): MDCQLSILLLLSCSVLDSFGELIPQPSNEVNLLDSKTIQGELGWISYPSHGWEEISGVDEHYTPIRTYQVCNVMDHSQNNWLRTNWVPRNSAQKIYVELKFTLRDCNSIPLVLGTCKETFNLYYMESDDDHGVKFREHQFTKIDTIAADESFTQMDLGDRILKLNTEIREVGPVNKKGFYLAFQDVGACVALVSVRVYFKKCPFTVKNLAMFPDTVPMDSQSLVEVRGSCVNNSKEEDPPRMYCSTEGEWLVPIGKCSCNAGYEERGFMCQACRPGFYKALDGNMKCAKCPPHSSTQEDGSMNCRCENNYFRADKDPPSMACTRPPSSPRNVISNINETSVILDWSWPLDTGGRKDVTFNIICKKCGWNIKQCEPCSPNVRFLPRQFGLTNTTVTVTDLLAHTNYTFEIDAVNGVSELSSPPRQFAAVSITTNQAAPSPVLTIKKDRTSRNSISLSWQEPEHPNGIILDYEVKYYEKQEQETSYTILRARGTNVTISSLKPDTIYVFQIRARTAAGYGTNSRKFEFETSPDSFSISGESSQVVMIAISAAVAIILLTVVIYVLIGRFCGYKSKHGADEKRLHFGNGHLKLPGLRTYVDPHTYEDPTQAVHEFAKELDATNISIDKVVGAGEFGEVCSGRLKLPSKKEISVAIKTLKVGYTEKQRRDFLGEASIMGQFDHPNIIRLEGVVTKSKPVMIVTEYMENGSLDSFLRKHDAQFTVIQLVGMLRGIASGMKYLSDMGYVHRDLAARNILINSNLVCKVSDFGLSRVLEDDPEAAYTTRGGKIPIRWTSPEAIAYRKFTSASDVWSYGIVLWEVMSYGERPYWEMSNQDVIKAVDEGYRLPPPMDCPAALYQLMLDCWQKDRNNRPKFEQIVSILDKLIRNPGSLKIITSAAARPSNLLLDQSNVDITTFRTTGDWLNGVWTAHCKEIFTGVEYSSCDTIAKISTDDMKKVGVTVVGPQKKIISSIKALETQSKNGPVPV

Cyclin-dependent kinase-like 1 (Homo sapiens), sequence (Q00532 whole entry): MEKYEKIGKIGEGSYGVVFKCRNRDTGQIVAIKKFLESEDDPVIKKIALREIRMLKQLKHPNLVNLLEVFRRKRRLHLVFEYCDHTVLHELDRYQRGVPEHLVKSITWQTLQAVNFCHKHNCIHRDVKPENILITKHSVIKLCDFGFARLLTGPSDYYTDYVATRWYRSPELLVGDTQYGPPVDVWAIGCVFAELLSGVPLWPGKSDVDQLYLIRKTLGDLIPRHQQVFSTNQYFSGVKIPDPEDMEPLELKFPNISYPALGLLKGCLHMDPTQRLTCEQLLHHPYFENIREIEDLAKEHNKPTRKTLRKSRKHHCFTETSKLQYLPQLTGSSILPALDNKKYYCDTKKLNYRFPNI

Work on `COc1cc(Nc2nc(C)cc(-c3cnn4nc(OC)ccc34)n2)cc(C(F)(F)F)c1` yielded a % of control [1] of 93%.

Molecule `COc1cc(N(C)c2ccnc3ccc(C(F)(F)F)cc23)cc(OC)c1OC` has a % binding [2] of 83% and a % binding [3] of 70%.

In the case of `CCC(=O)N1CCN(c2ccc(-n3c(=O)ccc4cnc5ccc(-c6cnc7ccccc7c6)cc5c43)cc2C(F)(F)F)CC1`, the % of control [4] is reported as 75%.

`CN(C)C/C=C/C(=O)Nc1ccc(C(=O)N2CCCC(Nc3ncc(Cl)c(-c4c[nH]c5ccccc45)n3)C2)cc1` (stereo not given) was tested, and the % of control [5] was 89%.
